{
  "source": "PubChem BioAssay (NCI)",
  "assay_in_all_cases": "NCI tumour cell line growth inhibition, 48 h",
  "key": {"[1]": {"test_system": "SNB-19 CNS"}, "[2]": {"test_system": "RXF 393 renal"}, "[3]": {"test_system": "SK-MEL-5 melanoma"}, "[4]": {"test_system": "A498 renal"}, "[5]": {"test_system": "MDA-MB-435"}, "[6]": {"test_system": "KM12 colon"}, "[7]": {"test_system": "MOLT-4 leukemia"}, "[8]": {"test_system": "DU-145 prostate"}, "[9]": {"test_system": "SNB-75 CNS"}, "[10]": {"test_system": "UACC-257 melanoma"}, "[11]": {"test_system": "HL-60(TB) leukemia"}, "[12]": {"test_system": "786-0 renal"}, "[13]": {"test_system": "HT29 colon"}, "[14]": {"test_system": "A549 NSCLC"}, "[15]": {"test_system": "MDA-N"}, "[16]": {"test_system": "OVCAR-5 ovarian"}, "[17]": {"test_system": "HCT-116 colon"}, "[18]": {"test_system": "M14 melanoma"}, "[19]": {"test_system": "OVCAR-3 ovarian"}, "[20]": {"test_system": "SK-MEL-2 melanoma"}, "[21]": {"test_system": "SF-268 CNS"}, "[22]": {"test_system": "OVCAR-8 ovarian"}, "[23]": {"test_system": "NCI-H226 lung"}, "[24]": {"test_system": "DMS 273 small cell lung"}, "[25]": {"test_system": "CCRF-CEM leukemia"}, "[26]": {"test_system": "SN12C renal"}, "[27]": {"test_system": "IGROV1 ovarian"}, "[28]": {"test_system": "K-562 leukemia"}, "[29]": {"test_system": "MALME-3M melanoma"}, "[30]": {"test_system": "T-47D breast"}, "[31]": {"test_system": "SW-620 colon"}, "[32]": {"test_system": "HCC-2998 colon"}, "[33]": {"test_system": "NCI-H23 lung"}, "[34]": {"test_system": "NCI-H460 lung"}, "[35]": {"test_system": "HCT-15 colon"}, "[36]": {"test_system": "LXFL 529 NSCLC"}, "[37]": {"test_system": "M19-MEL melanoma"}, "[38]": {"test_system": "CAKI-1 renal"}, "[39]": {"test_system": "RXF-631 renal"}, "[40]": {"test_system": "SNB-78 CNS"}, "[41]": {"test_system": "PC-3 prostate"}, "[42]": {"test_system": "LOX IMVI melanoma"}, "[43]": {"test_system": "MDA-MB-231 breast"}, "[44]": {"test_system": "XF 498 CNS"}, "[45]": {"test_system": "UACC-62 melanoma"}, "[46]": {"test_system": "SK-MEL-28 melanoma"}, "[47]": {"test_system": "MCF7 breast"}, "[48]": {"test_system": "RPMI-8226 leukemia"}, "[49]": {"test_system": "SF-295 CNS"}, "[50]": {"test_system": "ACHN renal"}, "[51]": {"test_system": "KM20L2 colon"}, "[52]": {"test_system": "SK-OV-3 ovarian"}, "[53]": {"test_system": "HOP-18 NSCLC"}, "[54]": {"test_system": "SR leukemia"}, "[55]": {"test_system": "COLO 205 colon"}, "[56]": {"test_system": "DMS 114 small cell lung"}, "[57]": {"test_system": "SF-539 CNS"}, "[58]": {"test_system": "HOP-92 NSCLC"}, "[59]": {"test_system": "U251 CNS"}, "[60]": {"test_system": "TK-10 renal"}, "[61]": {"test_system": "OVCAR-4 ovarian"}, "[62]": {"test_system": "EKVX NSCLC"}, "[63]": {"test_system": "UO-31 renal"}, "[64]": {"test_system": "DLD-1 colon"}, "[65]": {"test_system": "BT-549 breast"}, "[66]": {"test_system": "HOP-62 NSCLC"}, "[67]": {"test_system": "NCI-H522 lung"}},
  "note": "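A five-concentration, 48-hour dose response in 96-well plates underlies each endpoint, interpolated linearly between surrounding concentrations. TGI denotes the concentration required for complete inhibition of growth.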",
  "data": [
    {"smiles": "Nc1nc(-c2ccccc2)c(Cl)c(-c2cc(Cl)ccc2O)n1", "values": [
      {"measurement": "TGI", "setting": "[1]", "result": 47, "unit": "µM"},
      {"measurement": "TGI", "setting": "[2]", "result": 41.9, "unit": "µM"},
      {"measurement": "TGI", "setting": "[3]", "result": 59.6, "unit": "µM"},
      {"measurement": "TGI", "setting": "[4]", "result": "> 76.5", "unit": "µM"},
      {"measurement": "TGI", "setting": "[5]", "result": "> 100", "unit": "µM"},
      {"measurement": "TGI", "setting": "[6]", "result": "> 87.9", "unit": "µM"},
      {"measurement": "TGI", "setting": "[7]", "result": "> 100", "unit": "µM"},
      {"measurement": "TGI", "setting": "[8]", "result": "> 100", "unit": "µM"},
      {"measurement": "TGI", "setting": "[9]", "result": 43.9, "unit": "µM"},
      {"measurement": "TGI", "setting": "[10]", "result": "> 100", "unit": "µM"},
      {"measurement": "TGI", "setting": "[11]", "result": "> 100", "unit": "µM"},
      {"measurement": "TGI", "setting": "[12]", "result": 57.8, "unit": "µM"},
      {"measurement": "TGI", "setting": "[13]", "result": "> 100", "unit": "µM"},
      {"measurement": "TGI", "setting": "[14]", "result": 71, "unit": "µM"},
      {"measurement": "TGI", "setting": "[15]", "result": "> 100", "unit": "µM"},
      {"measurement": "TGI", "setting": "[16]", "result": "> 100", "unit": "µM"},
      {"measurement": "TGI", "setting": "[17]", "result": 27.1, "unit": "µM"},
      {"measurement": "TGI", "setting": "[18]", "result": "> 100", "unit": "µM"},
      {"measurement": "TGI", "setting": "[19]", "result": 24.2, "unit": "µM"},
      {"measurement": "TGI", "setting": "[20]", "result": 99.8, "unit": "µM"},
      {"measurement": "TGI", "setting": "[21]", "result": "> 83.1", "unit": "µM"},
      {"measurement": "TGI", "setting": "[22]", "result": 33.8, "unit": "µM"},
      {"measurement": "TGI", "setting": "[23]", "result": 61.3, "unit": "µM"},
      {"measurement": "TGI", "setting": "[24]", "result": 90.9, "unit": "µM"},
      {"measurement": "TGI", "setting": "[25]", "result": "> 100", "unit": "µM"},
      {"measurement": "TGI", "setting": "[26]", "result": 87.5, "unit": "µM"},
      {"measurement": "TGI", "setting": "[27]", "result": 54.7, "unit": "µM"},
      {"measurement": "TGI", "setting": "[28]", "result": "> 46.4", "unit": "µM"},
      {"measurement": "TGI", "setting": "[29]", "result": "> 100", "unit": "µM"},
      {"measurement": "TGI", "setting": "[30]", "result": 36.4, "unit": "µM"},
      {"measurement": "TGI", "setting": "[31]", "result": "> 100", "unit": "µM"},
      {"measurement": "TGI", "setting": "[32]", "result": "> 100", "unit": "µM"},
      {"measurement": "TGI", "setting": "[33]", "result": 67.2, "unit": "µM"},
      {"measurement": "TGI", "setting": "[34]", "result": 99.3, "unit": "µM"},
      {"measurement": "TGI", "setting": "[35]", "result": "> 100", "unit": "µM"},
      {"measurement": "TGI", "setting": "[36]", "result": "> 73.1", "unit": "µM"},
      {"measurement": "TGI", "setting": "[37]", "result": "> 100", "unit": "µM"},
      {"measurement": "TGI", "setting": "[38]", "result": 47.2, "unit": "µM"},
      {"measurement": "TGI", "setting": "[39]", "result": "> 100", "unit": "µM"},
      {"measurement": "TGI", "setting": "[40]", "result": "> 82.7", "unit": "µM"},
      {"measurement": "TGI", "setting": "[41]", "result": "> 100", "unit": "µM"},
      {"measurement": "TGI", "setting": "[42]", "result": "> 59.2", "unit": "µM"},
      {"measurement": "TGI", "setting": "[43]", "result": "> 100", "unit": "µM"},
      {"measurement": "TGI", "setting": "[44]", "result": 47.5, "unit": "µM"},
      {"measurement": "TGI", "setting": "[45]", "result": "> 100", "unit": "µM"},
      {"measurement": "TGI", "setting": "[46]", "result": "> 100", "unit": "µM"},
      {"measurement": "TGI", "setting": "[47]", "result": "> 100", "unit": "µM"},
      {"measurement": "TGI", "setting": "[48]", "result": "> 100", "unit": "µM"},
      {"measurement": "TGI", "setting": "[49]", "result": "> 94.3", "unit": "µM"},
      {"measurement": "TGI", "setting": "[50]", "result": 21.5, "unit": "µM"},
      {"measurement": "TGI", "setting": "[51]", "result": "> 100", "unit": "µM"},
      {"measurement": "TGI", "setting": "[52]", "result": 49.3, "unit": "µM"},
      {"measurement": "TGI", "setting": "[53]", "result": "> 94.3", "unit": "µM"},
      {"measurement": "TGI", "setting": "[54]", "result": "> 100", "unit": "µM"},
      {"measurement": "TGI", "setting": "[55]", "result": "> 100", "unit": "µM"},
      {"measurement": "TGI", "setting": "[56]", "result": 66.6, "unit": "µM"},
      {"measurement": "TGI", "setting": "[57]", "result": 66.5, "unit": "µM"},
      {"measurement": "TGI", "setting": "[58]", "result": "> 97.3", "unit": "µM"},
      {"measurement": "TGI", "setting": "[59]", "result": 45.1, "unit": "µM"},
      {"measurement": "TGI", "setting": "[60]", "result": 42.6, "unit": "µM"},
      {"measurement": "TGI", "setting": "[61]", "result": 66.4, "unit": "µM"},
      {"measurement": "TGI", "setting": "[62]", "result": "> 100", "unit": "µM"},
      {"measurement": "TGI", "setting": "[63]", "result": 46.6, "unit": "µM"},
      {"measurement": "TGI", "setting": "[64]", "result": "> 100", "unit": "µM"},
      {"measurement": "TGI", "setting": "[65]", "result": "> 100", "unit": "µM"},
      {"measurement": "TGI", "setting": "[66]", "result": 20.1, "unit": "µM"},
      {"measurement": "TGI", "setting": "[67]", "result": "> 62.9", "unit": "µM"}
    ]}
  ]
}
